Converted amounts (≈) assume the structure as drawn. Where a SMILES comes first, the peptide text is derived from it.
Key:
[1] = tested on: Staphylococcus epidermidis; experiment: Antibacterial activity against Staphylococcus epidermidis ATCC 12228 incubated for 18 hrs by CLSI based broth dilution method; format: functional
[2] = Selectivity ratio of MHC10 for BALB/C mouse erythrocytes to MIC for fungi; format: toxicity
[3] = Cytotoxicity against human glomerular mesangial cells incubated for 12 hrs by MTT assay; format: cell-based; settings: Glomerular mesangial cell
[4] = tested on: Staphylococcus aureus; experiment: Antibacterial activity against Staphylococcus aureus ATCC 25923 incubated for 18 hrs by CLSI based broth dilution method; format: functional
[5] = Selectivity ratio of MHC10 for BALB/C mouse erythrocytes to MIC for gram positive bacteria; format: toxicity
[6] = tested on: Klebsiella pneumoniae; experiment: Antibacterial activity against Klebsiella pneumoniae ATCC 700603 incubated for 18 hrs by CLSI based broth dilution method; format: functional
[7] = tested on: Bacteria; experiment: Antibacterial activity against Gram-positive bacteria incubated for 18 hrs by CLSI based broth dilution method; format: functional
[8] = tested on: Pseudomonas aeruginosa; experiment: Synergistic antibacterial activity against Pseudomonas aeruginosa ATCC 27853 at 2 times MIC incubated for 18 to 24 hrs in presence of 2 times MIC of polymyxin B by broth microdilution assay based checkerboard assay; format: functional; settings: time 18-24 hrs
[9] = tested on: Pseudomonas aeruginosa; experiment: Synergistic antibacterial activity against Pseudomonas aeruginosa ATCC 27853 at 2 times MIC incubated for 18 to 24 hrs in presence of 2 times MIC of rifampicin by broth microdilution assay based checkerboard assay; format: functional; settings: time 18-24 hrs
[10] = tested on: Pseudomonas aeruginosa; experiment: Antibacterial activity against Pseudomonas aeruginosa ATCC 27853 incubated for 18 hrs by CLSI based broth dilution method; format: functional
[11] = tested on: Acinetobacter baumannii; experiment: Antibacterial activity against Acinetobacter baumannii ATCC 19606 incubated for 18 hrs by CLSI based broth dilution method; format: functional; settings: ATCC 19606 = CIP 70.34 = JCM 6841
[12] = Selectivity ratio of MHC10 for BALB/C mouse erythrocytes to MIC for gram-negative bacteria; format: toxicity
[13] = Selectivity ratio of MHC10 for BALB/C mouse erythrocytes to MIC for bacteria; format: toxicity
[14] = tested on: Fungi; experiment: Antibacterial activity against fungi incubated for 18 hrs by CLSI based broth dilution method; format: functional
[15] = tested on: Erythrocyte; experiment: Hemolytic activity in BALB/C mouse erythrocytes incubated for 1 hr by absorbance method; format: ADME, cell-based
[16] = tested on: Bacteria; experiment: Antibacterial activity against bacteria incubated for 18 hrs by CLSI based broth dilution method; format: functional
[17] = tested on: Enterococcus faecalis; experiment: Antibacterial activity against Enterococcus faecalis ATCC 29212 incubated for 18 hrs by CLSI based broth dilution method; format: functional
[18] = tested on: Escherichia coli; experiment: Antibacterial activity against Escherichia coli ATCC 25922 incubated for 18 hrs by CLSI based broth dilution method; format: functional
[19] = tested on: Bacillus subtilis; experiment: Antibacterial activity against Bacillus subtilis ATCC 23857 incubated for 18 hrs by CLSI based broth dilution method; format: functional
[20] = tested on: Bacteria; experiment: Antibacterial activity against Gram-negative bacteria incubated for 18 hrs by CLSI based broth dilution method; format: functional

MIC [1] [µM] | MIC [4] [µM] | MIC [6] [µM] | MIC [7] [µM] | MIC [10] [µM] | MIC [11] [µM] | MIC [14] [µM] | MIC [16] [µM] | MIC [17] [µM] | MIC [18] [µM] | MIC [19] [µM] | MIC [20] [µM] | Structure (SMILES) | selectivity ratio [2] | IC50 [3] [µM] | selectivity ratio at 18 h [5] | FIC [8] | FIC [9] | selectivity ratio [12] | selectivity ratio [13] | MHC10 [15]
64 (≈ 84.3 µg/mL) | 16 (≈ 21.1 µg/mL) | 32 (≈ 42.2 µg/mL) | 32 (≈ 42.2 µg/mL) | 32 (≈ 42.2 µg/mL) | 64 (≈ 84.3 µg/mL) | 26.9 (≈ 35.5 µg/mL) | 26.9 (≈ 35.5 µg/mL) | 64 (≈ 84.3 µg/mL) | 32 (≈ 42.2 µg/mL) | 16 (≈ 21.1 µg/mL) |  | CC[C@H](C)[C@H](NC(=O)[C@H](CCCNC(=N)N)NC(=O)[C@H](CCCCN)NC(=O)[C@H](Cc1ccccc1)NC(=O)[C@H](Cc1ccccc1)NC(=O)CN)C(=O)N[C@@H](CCCNC(=N)N)C(=O)N[C@H](C(=O)N[C@@H](Cc1ccccc1)C(=O)N[C@@H](Cc1ccccc1)C(N)=O)[C@@H](C)O (H-GFFKRIRTFF-NH2) | 19 | 88.9 | 16 | 0.5625 | 0.5625 | 22.6 | 19 | >= 512 uM
64 (≈ 84.3 µg/mL) | 16 (≈ 21.1 µg/mL) | 32 (≈ 42.2 µg/mL) | 32 (≈ 42.2 µg/mL) | 32 (≈ 42.2 µg/mL) | 64 (≈ 84.3 µg/mL) | 29.3 (≈ 38.7 µg/mL) | 29.3 (≈ 38.7 µg/mL) | 64 (≈ 84.3 µg/mL) | 32 (≈ 42.2 µg/mL) | 16 (≈ 21.1 µg/mL) |  | CC[C@H](C)[C@H](NC(=O)[C@H](CCCNC(=N)N)NC(=O)[C@H](CCCNC(=N)N)NC(=O)[C@H](Cc1ccccc1)NC(=O)[C@H](Cc1ccccc1)NC(=O)CN)C(=O)N[C@@H](CCCCN)C(=O)N[C@H](C(=O)N[C@@H](Cc1ccccc1)C(=O)N[C@@H](Cc1ccccc1)C(N)=O)[C@@H](C)O (H-GFFRRIKTFF-NH2) | 17.4 | 91.9 | 16 | 0.5 | 0.3125 | 19 | 17.4 | >= 512 uM
32 (≈ 43.1 µg/mL) | 8 (≈ 10.8 µg/mL) | 32 (≈ 43.1 µg/mL) | 16 (≈ 21.5 µg/mL) | 32 (≈ 43.1 µg/mL) | 32 (≈ 43.1 µg/mL) | 17.4 (≈ 23.5 µg/mL) | 17.4 (≈ 23.5 µg/mL) | 32 (≈ 43.1 µg/mL) | 32 (≈ 43.1 µg/mL) | 8 (≈ 10.8 µg/mL) |  | CC[C@H](C)[C@H](NC(=O)[C@H](CCCNC(=N)N)NC(=O)[C@H](CCCNC(=N)N)NC(=O)[C@H](Cc1ccccc1)NC(=O)[C@H](Cc1ccccc1)NC(=O)CN)C(=O)N[C@@H](CCCNC(=N)N)C(=O)N[C@H](C(=O)N[C@@H](Cc1ccccc1)C(=O)N[C@@H](Cc1ccccc1)C(N)=O)[C@@H](C)O (H-GFFRRIRTFF-NH2) | 29.3 | 52.6 | 32 | 0.5625 | 0.5625 | 26.9 | 29.3 | >= 512 uM
≥ 512 | ≥ 512 | ≥ 512 | ≥ 512 | ≥ 512 | ≥ 512 | ≥ 512 | ≥ 512 | ≥ 512 | ≥ 512 | ≥ 512 | ≥ 512 | CC(C)C[C@H](NC(=O)[C@H](CC(C)C)NC(=O)[C@@H](NC(=O)[C@H](CCCCN)NC(=O)[C@H](C)NC(=O)[C@H](CCCNC(=N)N)NC(=O)[C@H](CCCCN)NC(=O)[C@H](C)NC(=O)[C@H](CC(C)C)NC(=O)CN)[C@@H](C)O)C(N)=O (H-GLAKRAKTLL-NH2) | 1 | ≥ 512 | 1 |  |  | 1 | 1 | >= 512 uM
16 (≈ 19 µg/mL) | 128 (≈ 152 µg/mL) | 128 (≈ 152 µg/mL) | 64 (≈ 76 µg/mL) | 64 (≈ 76 µg/mL) | 256 (≈ 304 µg/mL) | 69.8 (≈ 82.9 µg/mL) | 69.8 (≈ 82.9 µg/mL) | 256 (≈ 304 µg/mL) | 64 (≈ 76 µg/mL) | 32 (≈ 38 µg/mL) | 76.1 (≈ 90.4 µg/mL) | CC(C)C[C@H](NC(=O)[C@H](CC(C)C)NC(=O)[C@@H](NC(=O)[C@H](CCCCN)NC(=O)[C@H](Cc1ccccc1)NC(=O)[C@H](CCCNC(=N)N)NC(=O)[C@H](CCCCN)NC(=O)[C@H](CC(C)C)NC(=O)[C@H](CC(C)C)NC(=O)CN)[C@@H](C)O)C(N)=O (H-GLLKRFKTLL-NH2) | 7.34 | ≥ 512 | 8 |  |  | 6.73 | 7.34 | >= 512 uM
64 (≈ 71.1 µg/mL) | 256 (≈ 285 µg/mL) | 256 (≈ 285 µg/mL) | 128 (≈ 142 µg/mL) | 256 (≈ 285 µg/mL) | ≥ 512 | 166 (≈ 185 µg/mL) | 166 (≈ 185 µg/mL) | ≥ 512 | 256 (≈ 285 µg/mL) | 32 (≈ 35.6 µg/mL) | 215 (≈ 239 µg/mL) | CC(C)C[C@H](NC(=O)CN)C(=O)N[C@@H](CC(C)C)C(=O)N[C@@H](CCCCN)C(=O)N[C@@H](CCCNC(=N)N)C(=O)N[C@@H](CC(C)C)C(=O)N[C@@H](CCCCN)C(=O)N[C@H](C(=O)N[C@@H](CC(C)C)C(=O)N[C@@H](C)C(N)=O)[C@@H](C)O (H-GLLKRLKTLA-NH2) | 3.08 | ≥ 512 | 4 |  |  | 2.38 | 3.08 | >= 512 uM
4 (≈ 5.47 µg/mL) | 16 (≈ 21.9 µg/mL) | 32 (≈ 43.8 µg/mL) | 11.3 (≈ 15.5 µg/mL) | 16 (≈ 21.9 µg/mL) | 64 (≈ 87.5 µg/mL) | 16 (≈ 21.9 µg/mL) | 16 (≈ 21.9 µg/mL) | 64 (≈ 87.5 µg/mL) | 16 (≈ 21.9 µg/mL) | 4 (≈ 5.47 µg/mL) |  | CC[C@H](C)[C@H](NC(=O)[C@H](CCCNC(=N)N)NC(=O)[C@H](CCCCN)NC(=O)[C@H](Cc1ccccc1)NC(=O)[C@H](Cc1c[nH]c2ccccc12)NC(=O)CN)C(=O)N[C@@H](CCCCN)C(=O)N[C@H](C(=O)N[C@@H](Cc1ccccc1)C(=O)N[C@@H](Cc1c[nH]c2ccccc12)C(N)=O)[C@@H](C)O (H-GWFKRIKTFW-NH2) | 24 | 98.3 | 34 | 0.25 | 0.3125 | 17 | 24 | 384 µM
4 (≈ 6.08 µg/mL) | 8 (≈ 12.2 µg/mL) | 16 (≈ 24.3 µg/mL) | 6.7 (≈ 10.2 µg/mL) | 16 (≈ 24.3 µg/mL) | 16 (≈ 24.3 µg/mL) | 9.51 (≈ 14.4 µg/mL) | 9.51 (≈ 14.4 µg/mL) | 16 (≈ 24.3 µg/mL) | 16 (≈ 24.3 µg/mL) | 4 (≈ 6.08 µg/mL) | 13.5 (≈ 20.5 µg/mL) | C[C@@H](O)[C@H](NC(=O)[C@H](CCCCN)NC(=O)[C@H](Cc1c[nH]c2ccccc12)NC(=O)[C@H](CCCNC(=N)N)NC(=O)[C@H](CCCCN)NC(=O)[C@H](Cc1c[nH]c2ccccc12)NC(=O)[C@H](Cc1c[nH]c2ccccc12)NC(=O)CN)C(=O)N[C@@H](Cc1c[nH]c2ccccc12)C(=O)N[C@@H](Cc1c[nH]c2ccccc12)C(N)=O (H-GWWKRWKTWW-NH2) | 4.29 | 49.5 | 6.09 |  |  | 3.02 | 4.29 | 40.79 µM
128 (≈ 184 µg/mL) | 16 (≈ 23 µg/mL) | 32 (≈ 46 µg/mL) | 38.1 (≈ 54.8 µg/mL) | 16 (≈ 23 µg/mL) | 128 (≈ 184 µg/mL) | 32 (≈ 46 µg/mL) | 32 (≈ 46 µg/mL) | 64 (≈ 92.1 µg/mL) | 16 (≈ 23 µg/mL) | 16 (≈ 23 µg/mL) |  | CC[C@H](C)[C@H](NC(=O)[C@H](CCCNC(=N)N)NC(=O)[C@H](CCCCN)NC(=O)[C@H](Cc1ccccc1)NC(=O)[C@H](Cc1c[nH]c2ccccc12)NC(=O)[C@@H](N)CCCCN)C(=O)N[C@@H](CCCCN)C(=O)N[C@H](C(=O)N[C@@H](Cc1ccccc1)C(=O)N[C@@H](Cc1c[nH]c2ccccc12)C(N)=O)[C@@H](C)O (H-KWFKRIKTFW-NH2) | 16 | 80.2 | 13.4 | 0.25 | 0.3125 | 19 | 16 | >= 512 uM
32 (≈ 55.3 µg/mL) | 8 (≈ 13.8 µg/mL) | 32 (≈ 55.3 µg/mL) | 13.5 (≈ 23.3 µg/mL) | 32 (≈ 55.3 µg/mL) | 128 (≈ 221 µg/mL) | 17.4 (≈ 30.2 µg/mL) | 17.4 (≈ 30.2 µg/mL) | 32 (≈ 55.3 µg/mL) | 32 (≈ 55.3 µg/mL) | 4 (≈ 6.92 µg/mL) | 22.6 (≈ 39.1 µg/mL) | N=C(N)NCCC[C@H](NC(=O)[C@H](CCCNC(=N)N)NC(=O)[C@H](Cc1c[nH]c2ccccc12)NC(=O)[C@H](CCCNC(=N)N)NC(=O)[C@H](CCCNC(=N)N)NC(=O)[C@H](Cc1c[nH]c2ccccc12)NC(=O)[C@H](Cc1c[nH]c2ccccc12)NC(=O)[C@@H](N)CCCNC(=N)N)C(=O)N[C@@H](Cc1c[nH]c2ccccc12)C(=O)N[C@@H](Cc1c[nH]c2ccccc12)C(N)=O (H-RWWRRWRRWW-NH2) | 2.5 | 11.2 | 3.23 |  |  | 1.93 | 2.5 | 43.67 µM

— ChEMBL document CHEMBL4823282, “Novel Broad-Spectrum Antimicrobial Peptide Derived from Anoplin and Its Activity on Bacterial Pneumonia in Mice” (J Med Chem, 2021)
